The source made the active and inactive calls. The calls are words filed in the database; no cut-off is given here.
What was measured:
[1] = Mutagenicity in Salmonella typhimurium TA98 assessed as increase in revertant colonies after 2 days in presence of rat liver S9 fraction by Ames test relative to control; format: toxicity; settings: salmonella enterica subsp. enterica serovar typhimurium, s9, 48 h
[2] = Mutagenicity in Salmonella typhimurium TA1535 assessed as increase in revertant colonies after 2 days in presence of rat liver S9 fraction by Ames test relative to control; format: toxicity; settings: salmonella enterica subsp. enterica serovar typhimurium, s9, 48 h
[3] = Mutagenicity in Salmonella typhimurium TA100 assessed as increase in revertant colonies after 2 days in presence of rat liver S9 fraction by Ames test relative to control; format: toxicity; settings: salmonella enterica subsp. enterica serovar typhimurium, s9, 48 h
P-gp (ABCB1) = P-gp (ABCB1) (Homo sapiens, UniProt P08183); assay: Substrate activity at human P-gp assessed as efflux ratio by cell based assay; settings: not told
Chain of P-gp (ABCB1) (P08183 whole entry): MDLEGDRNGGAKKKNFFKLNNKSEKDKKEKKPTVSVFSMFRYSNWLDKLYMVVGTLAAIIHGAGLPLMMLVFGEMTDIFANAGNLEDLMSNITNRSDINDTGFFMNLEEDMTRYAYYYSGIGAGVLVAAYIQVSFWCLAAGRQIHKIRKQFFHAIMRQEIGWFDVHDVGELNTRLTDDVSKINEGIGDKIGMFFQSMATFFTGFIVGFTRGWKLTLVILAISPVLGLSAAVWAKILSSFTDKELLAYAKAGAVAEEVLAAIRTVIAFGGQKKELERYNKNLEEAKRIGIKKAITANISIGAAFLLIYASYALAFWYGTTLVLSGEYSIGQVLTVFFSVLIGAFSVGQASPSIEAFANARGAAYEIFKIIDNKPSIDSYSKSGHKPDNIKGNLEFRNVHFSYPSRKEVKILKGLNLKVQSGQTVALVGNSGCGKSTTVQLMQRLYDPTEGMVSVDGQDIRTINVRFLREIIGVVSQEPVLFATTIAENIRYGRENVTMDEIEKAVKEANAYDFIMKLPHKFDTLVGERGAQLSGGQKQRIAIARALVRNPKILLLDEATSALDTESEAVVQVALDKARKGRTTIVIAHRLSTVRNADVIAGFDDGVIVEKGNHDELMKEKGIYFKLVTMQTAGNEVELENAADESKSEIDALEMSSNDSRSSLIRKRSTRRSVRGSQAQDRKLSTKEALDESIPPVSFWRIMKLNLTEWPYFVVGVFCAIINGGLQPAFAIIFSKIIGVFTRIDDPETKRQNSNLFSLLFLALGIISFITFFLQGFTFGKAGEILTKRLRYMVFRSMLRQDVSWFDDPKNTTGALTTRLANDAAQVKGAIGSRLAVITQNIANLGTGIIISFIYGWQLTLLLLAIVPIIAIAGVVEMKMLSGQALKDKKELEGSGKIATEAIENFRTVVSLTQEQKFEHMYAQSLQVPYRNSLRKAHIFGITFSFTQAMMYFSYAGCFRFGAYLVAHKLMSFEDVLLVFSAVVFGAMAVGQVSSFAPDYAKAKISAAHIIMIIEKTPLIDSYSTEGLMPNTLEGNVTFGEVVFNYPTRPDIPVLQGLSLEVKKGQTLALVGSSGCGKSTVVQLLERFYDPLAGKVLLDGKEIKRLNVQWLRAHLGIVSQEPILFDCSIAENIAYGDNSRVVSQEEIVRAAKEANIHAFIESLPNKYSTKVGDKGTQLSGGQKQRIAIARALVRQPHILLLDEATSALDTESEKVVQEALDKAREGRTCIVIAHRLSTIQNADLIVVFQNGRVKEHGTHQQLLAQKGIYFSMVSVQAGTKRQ

[4] = Mutagenicity in Salmonella typhimurium TA102 assessed as increase in revertant colonies after 2 days in presence of rat liver S9 fraction by Ames test relative to control; format: toxicity; settings: salmonella enterica subsp. enterica serovar typhimurium, s9, 48 h
[5] = Octanol-aqueous phosphate buffer distribution coefficient, log D of the compound at pH 7.4 at 100 mM after 24 hrs by LC-MS based shake flask method; format: physicochemical
[6] = Mutagenicity in Salmonella typhimurium TA97 assessed as increase in revertant colonies after 2 days in presence of rat liver S9 fraction by Ames test relative to control; format: toxicity; settings: salmonella enterica subsp. enterica serovar typhimurium, s9, 48 h
Homo sapiens [7] = species: Homo sapiens; assay: Inhibition of mRNA splicing of SMN2 exon 7 in GM03813 fibroblasts derived from human SMA type 1 patient after 24 hrs by RT-qPCR analysis
Homo sapiens [8] = species: Homo sapiens; assay: Inhibition of mRNA splicing of SMN2 exon 7 in fibroblasts derived from human SMA type 1/2/3 patient assessed as increase in SMN protein level after 48 hrs by HTRF assay
[9] = Stability in human plasma assessed as compound remaining after 5 hrs; format: ADME, cell-free; settings: read-out: Stability
NIH3T3 = assay: Phototoxicity in mouse 3T3 cells in presence of UVA irradiation; format: functional, cell-based; settings: NIH3T3, light or radiation study
[10] = Stability of the compound in human plasma; format: ADME, cell-free
[11] = Stability of the compound in pH 1 to 12 aqueous buffer; format: physicochemical

| Structure (SMILES) | EC1.5 (Homo sapiens [7]) | EC1.5 (Homo sapiens [8]) | Activity [1] | Activity [2] | Activity [3] | Activity [4] | Activity [6] | fold change (FC) [1] | fold change (FC) [2] | fold change (FC) [3] | fold change (FC) [4] | fold change (FC) [6] | other results |
| --- | --- | --- | --- | --- | --- | --- | --- | --- | --- | --- | --- | --- | --- |
| CCN1CCC(c2cc(C)c3nc(-c4cc5c(C)nc(C)cn5n4)cc(=O)n3c2)CC1 | 30 nM | 84 nM | Non-Toxic | Non-Toxic | Non-Toxic | Non-Toxic | Non-Toxic |  |  |  |  |  | efflux ratio (P-gp (ABCB1)): 1.4; logD at 24 h [5]: 1.87 |
| Cc1cn2cc(-c3cc4ccc(F)cc4c(=O)o3)nc2c(C)n1 |  |  |  |  |  |  |  |  |  |  |  |  | remaining at 5 h [9]: 30% |
| CN1CCN(c2ccc3nc(-c4ccc5nccn5c4)cc(=O)n3c2)CC1 | 582 nM | 3400 nM |  |  |  |  |  | < 2 | < 2 | < 1.5 | < 1.5 | < 1.5 |  |
| Cc1cn2cc(-c3cc4ccc(N5CCN(C)CC5)cc4c(=O)o3)nc2c(C)n1 |  |  |  |  |  |  |  |  |  |  |  |  | IC50 (NIH3T3): 150 nM; remaining at 5 h [9]: 55% |
| Cc1cn2nc(-c3cc(=O)n4cc(C5CCN(C)CC5)cc(C)c4n3)cc2c(C)n1 | 57 nM | 77 nM | Non-Toxic | Non-Toxic | Non-Toxic | Non-Toxic | Non-Toxic |  |  |  |  |  | efflux ratio (P-gp (ABCB1)): 1.2; logD at 24 h [5]: 1.82 |
| CCc1nc(C)cn2nc(-c3cc(=O)n4cc(N5CCN6CCC[C@H]6C5)ccc4n3)cc12 | 40 nM | 163 nM | Non-Toxic | Non-Toxic | Non-Toxic | Non-Toxic | Non-Toxic |  |  |  |  |  |  |
| CN1CCN(c2ccc3nc(-c4ccc5c(c4)ncn5C)cc(=O)n3c2)CC1 | inactive | inactive |  |  |  |  |  | < 2 | < 2 | < 1.5 | < 1.5 | < 1.5 |  |
| CCN1CCN(c2ccc3cc(-c4cn5cc(C)nc(C)c5n4)c(=O)oc3c2)C[C@@H]1C |  |  |  |  |  |  |  |  |  |  |  |  | IC50 (NIH3T3): 80 nM; remaining at 5 h [9]: 93% |
| Cc1cn2cc(-c3cc(=O)n4cc(N5CCC(N6CCC6)CC5)ccc4n3)cc2c(C)n1 |  | 46 nM |  |  |  |  |  |  |  |  |  |  | efflux ratio (P-gp (ABCB1)): 6.6; logD at 24 h [5]: 1.53 |
| CCc1nc(C)cn2nc(-c3cc(=O)n4cc(C5=CCNCC5)cc(C)c4n3)cc12 | 6 nM | 15 nM | Non-Toxic | Non-Toxic | Non-Toxic | Non-Toxic | Non-Toxic |  |  |  |  |  |  |
| CC(=O)c1cc2ccc(F)cc2c(=O)o1 |  |  |  |  |  |  |  |  |  |  |  |  | remaining at 5 h [9]: 16% |

Second part, led by results:

| EC1.5 (Homo sapiens [7]) | EC1.5 (Homo sapiens [8]) | Structure (SMILES) | Activity [1] | Activity [2] | Activity [3] | Activity [4] | Activity [6] | fold change (FC) [1] | fold change (FC) [2] | fold change (FC) [3] | fold change (FC) [4] | fold change (FC) [6] | other results |
| --- | --- | --- | --- | --- | --- | --- | --- | --- | --- | --- | --- | --- | --- |
|  | 76 nM | Cc1cn2cc(-c3cc(=O)n4cc(N5CCC(N6CCCC6)CC5)ccc4n3)cc(C(F)(F)F)c2n1 |  |  |  |  |  |  |  |  |  |  | efflux ratio (P-gp (ABCB1)): 8.5; logD at 24 h [5]: 1.45 |
| 1 nM | 9 nM | Cc1cn2cc(-c3cc(=O)n4cc(N5CCNCC5)ccc4n3)cc(F)c2n1 | Non-Toxic | Non-Toxic | Non-Toxic | Non-Toxic | Non-Toxic |  |  |  |  |  |  |
| 314 nM | 820 nM | Cc1nc2ccc(-c3cc(=O)n4cc(N5CCN(C)CC5)ccc4n3)cn2n1 |  |  |  |  |  | < 2 | < 2 | < 1.5 | < 1.5 | < 1.5 |  |
| 1 nM | 4 nM | Cc1nc2c(F)cc(-c3cc(=O)n4cc(N5CCNCC5)ccc4n3)cc2o1 |  |  |  |  |  | < 2 | < 2 | < 1.5 | < 1.5 | < 1.5 |  |
| 182 nM | 760 nM | Cc1cn2cc(-c3cc(=O)n4cc(N5CCN(C)CC5)ccc4n3)ccc2n1 |  |  |  |  |  | < 2 | < 2 | < 1.5 | < 1.5 | < 1.5 |  |
| 3 nM | 13 nM | Cc1nc2c(F)cc(-c3cc(=O)n4cc(N5CCN(C)CC5)ccc4n3)cc2o1 |  |  |  |  |  | < 2 | < 2 | < 1.5 | < 1.5 | < 1.5 | efflux ratio (P-gp (ABCB1)): 1.1; logD at 24 h [5]: 2.46 |
| 148 nM | 395 nM | Cc1nc2ccc(-c3cc(=O)n4cc(N5CCN(C)CC5)ccc4n3)cc2o1 |  |  |  |  |  | < 2 | < 2 | < 1.5 | < 1.5 | < 1.5 |  |
| 92 nM | 170 nM | Cc1cn2nc(-c3cc(=O)n4cc(N5CCN(C)CC5)ccc4n3)cc2c(C)n1 | Non-Toxic | Non-Toxic | Non-Toxic | Non-Toxic | Non-Toxic |  |  |  |  |  | IC50 (NIH3T3): 2900 nM; Stability [10]: Stable; Stability [11]: Stable |

— ChEMBL document CHEMBL4477215, “Specific Correction of Alternative Survival Motor Neuron 2 Splicing by Small Molecules: Discovery of a Potential Novel Medicine To Treat Spinal Muscular Atrophy” (J Med Chem, 2016)
